# Source: ChEMBL document CHEMBL5331113 (J Med Chem, 2023)
# The source made the active and inactive calls. The rule behind the calls is not given here.
# Key:
# [1] = molecular target: T1, Succinate receptor 1 (Homo sapiens) (UniProt Q9BXA5); settings: Flp-In-T-REx-293, filed as agonist, time 30.0 min
# T1 sequence (whole entry): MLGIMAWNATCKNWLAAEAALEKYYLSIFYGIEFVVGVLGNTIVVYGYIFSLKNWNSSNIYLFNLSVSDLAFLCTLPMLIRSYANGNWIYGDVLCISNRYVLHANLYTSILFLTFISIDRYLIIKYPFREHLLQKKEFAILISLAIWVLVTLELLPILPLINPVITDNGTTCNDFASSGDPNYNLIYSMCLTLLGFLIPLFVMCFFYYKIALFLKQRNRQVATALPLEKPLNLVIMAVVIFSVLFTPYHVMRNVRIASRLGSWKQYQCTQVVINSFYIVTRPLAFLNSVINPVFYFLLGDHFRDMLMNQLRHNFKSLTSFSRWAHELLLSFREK
# HEK293T [2] = test: Antagonist activity at mouse succinate receptor 1 N181.31E/K2697.32N mutant expressed in HEK293T cells co-transfected with Galphai-Rluc8/Ggamma8-GFP2/Gbeta3 assessed as inhibition of succinate induced G protein activation incubated for 5 mins by luminescence based BRET assay; type: cell-based
# HEK293T [3] = test: Antagonist activity at mouse succinate receptor 1 N181.31E/K2697.32N/G84EL1W mutant expressed in HEK293T cells co-transfected with Galphai-Rluc8/Ggamma8-GFP2/Gbeta3 assessed as inhibition of succinate induced G protein activation incubated for 5 mins by luminescence based BRET assay; type: cell-based; settings: filed as antagonist
# [4] = Competitive binding affinity to humanized mouse succinate receptor 1 N181.31E/K2697.32N/G84EL1W mutant assessed as inhibition constant incubated for 5 mins in the presence of TUG-2384 by BRET assay
# Succinate receptor 1 = molecular target: T2, Succinate receptor 1 (Homo sapiens, UniProt Q9BXA5); test: Competitive binding affinity to N-terminal Nluc-tagged human succinate receptor 1 expressed in Flp-In-T-REx-293 cells assessed as inhibition constant incubated for 5 mins in the presence of TUG-2465 by BRET assay; type: cell-based
# T2 sequence (Q9BXA5 whole entry): T1 sequence (whole entry)
# cells = settings: Mus musculus, HEK-293T, 5 min, read-out: pEC50 (converted)
compound,measurement,setting,value
CC(C)(C)OC(=O)NCCCCCCOc1ccc(-c2cccc(C(=O)Nc3ccccc3CC(=O)O)c2)cc1,pEC50,[1],Active
CN1CCN(Cc2ccc(-c3cccc(C(=O)Nc4ccccc4CC(=O)O)c3)cc2)CC1,Activity,HEK293T [2],inactive
same,Activity,HEK293T [3],Active
O=C(O)CCc1cccc(Oc2ccc(Oc3cccc4cnccc34)cc2C(F)(F)F)c1,pKi,[4],< 4.5
same,Ki,Succinate receptor 1,7.94 µM
O=C(O)CCC(=O)O [SUCCINIC ACID],EC50,cells,52.5 µM
